Source: publication PMC7287781 (Molecules, 2020)

Experiments:
Flt-1 = molecular target: T1, Flt-1 (Homo sapiens, UniProt P17948); test: ELISA tyrosine kinase activity assay, single concentration; type: biochemical; details: read-out: Inhibition Rate(%) / Flt-1
T1 construct: gene FLT1; purified tyrosine kinase protein

PDGFR-β = molecular target: T2, PDGFR-β (Homo sapiens, UniProt P09619); test: as above; type: biochemical; details: read-out: Inhibition Rate(%) / PDGFR-β
T2 construct: gene PDGFRB; purified tyrosine kinase protein
T2 sequence (P09619 33-1106): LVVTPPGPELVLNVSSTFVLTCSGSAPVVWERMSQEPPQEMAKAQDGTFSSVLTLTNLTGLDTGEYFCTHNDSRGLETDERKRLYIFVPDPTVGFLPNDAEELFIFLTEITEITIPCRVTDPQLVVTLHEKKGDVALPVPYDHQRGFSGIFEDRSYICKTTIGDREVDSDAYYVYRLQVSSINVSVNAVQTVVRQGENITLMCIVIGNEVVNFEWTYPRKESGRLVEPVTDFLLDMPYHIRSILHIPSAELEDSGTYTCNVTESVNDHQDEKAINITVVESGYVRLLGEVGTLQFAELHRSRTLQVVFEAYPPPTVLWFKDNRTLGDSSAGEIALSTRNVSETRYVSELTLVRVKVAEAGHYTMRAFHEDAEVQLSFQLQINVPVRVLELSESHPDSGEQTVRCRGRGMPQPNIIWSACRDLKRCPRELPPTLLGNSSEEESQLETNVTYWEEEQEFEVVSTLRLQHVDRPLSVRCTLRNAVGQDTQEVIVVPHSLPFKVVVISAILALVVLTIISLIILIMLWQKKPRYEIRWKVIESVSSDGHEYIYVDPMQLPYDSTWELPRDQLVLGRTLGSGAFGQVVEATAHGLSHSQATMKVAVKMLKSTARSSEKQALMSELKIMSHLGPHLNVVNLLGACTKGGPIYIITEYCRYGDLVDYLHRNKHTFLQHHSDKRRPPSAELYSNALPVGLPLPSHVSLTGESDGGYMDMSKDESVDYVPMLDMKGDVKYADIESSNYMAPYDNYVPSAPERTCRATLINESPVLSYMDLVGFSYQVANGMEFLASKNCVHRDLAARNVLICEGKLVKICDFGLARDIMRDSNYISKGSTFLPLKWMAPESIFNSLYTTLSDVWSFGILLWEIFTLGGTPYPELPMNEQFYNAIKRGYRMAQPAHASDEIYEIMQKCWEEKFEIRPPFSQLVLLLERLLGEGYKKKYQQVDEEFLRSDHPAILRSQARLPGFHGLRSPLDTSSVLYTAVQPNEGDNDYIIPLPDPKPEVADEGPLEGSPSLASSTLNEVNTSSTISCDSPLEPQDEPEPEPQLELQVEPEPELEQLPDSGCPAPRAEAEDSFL

PDGFR-α = molecular target: T3, PDGFR-α (Homo sapiens, UniProt P16234); test: as above; type: biochemical; details: read-out: Inhibition Rate(%) / PDGFR-α
T3 construct: gene PDGFRA; purified tyrosine kinase protein
T3 sequence (P16234 24-1089): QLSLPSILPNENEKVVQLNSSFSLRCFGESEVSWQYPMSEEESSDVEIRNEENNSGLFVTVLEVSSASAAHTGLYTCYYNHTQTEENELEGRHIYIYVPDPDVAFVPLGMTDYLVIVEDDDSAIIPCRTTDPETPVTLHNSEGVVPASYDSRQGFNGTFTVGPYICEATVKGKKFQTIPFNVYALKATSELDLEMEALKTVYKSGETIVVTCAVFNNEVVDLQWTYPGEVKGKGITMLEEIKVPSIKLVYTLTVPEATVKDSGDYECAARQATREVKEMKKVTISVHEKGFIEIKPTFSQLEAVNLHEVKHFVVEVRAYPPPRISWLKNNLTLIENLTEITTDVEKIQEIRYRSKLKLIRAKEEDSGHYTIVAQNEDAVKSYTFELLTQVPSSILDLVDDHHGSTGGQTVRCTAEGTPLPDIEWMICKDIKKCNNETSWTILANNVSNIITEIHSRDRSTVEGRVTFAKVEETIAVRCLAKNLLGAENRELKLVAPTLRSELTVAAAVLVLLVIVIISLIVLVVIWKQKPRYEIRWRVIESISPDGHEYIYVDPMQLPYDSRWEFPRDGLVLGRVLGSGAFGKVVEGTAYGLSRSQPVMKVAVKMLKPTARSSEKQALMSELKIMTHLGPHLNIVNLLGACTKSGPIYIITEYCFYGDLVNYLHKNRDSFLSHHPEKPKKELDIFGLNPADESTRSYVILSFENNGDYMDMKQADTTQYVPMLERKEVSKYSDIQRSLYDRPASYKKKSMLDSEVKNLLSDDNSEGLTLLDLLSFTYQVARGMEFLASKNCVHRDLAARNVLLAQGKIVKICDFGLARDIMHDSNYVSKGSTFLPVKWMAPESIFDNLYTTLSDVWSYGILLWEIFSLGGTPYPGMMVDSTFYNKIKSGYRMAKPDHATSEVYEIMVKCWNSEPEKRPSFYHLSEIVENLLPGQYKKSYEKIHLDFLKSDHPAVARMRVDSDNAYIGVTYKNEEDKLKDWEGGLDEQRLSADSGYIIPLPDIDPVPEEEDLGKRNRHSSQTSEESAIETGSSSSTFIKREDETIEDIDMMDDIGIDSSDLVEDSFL

STAT3 = molecular target: T4, STAT3 (Homo sapiens, UniProt P40763); test: fluorescence polarization competition with 5-carboxyfluorescein-GpYLPQTV-NH2; […], […], […] inhibition at […]; type: binding
T4 construct: STAT3 protein (ab43618, Abcam)
T4 sequence (P40763 2-770): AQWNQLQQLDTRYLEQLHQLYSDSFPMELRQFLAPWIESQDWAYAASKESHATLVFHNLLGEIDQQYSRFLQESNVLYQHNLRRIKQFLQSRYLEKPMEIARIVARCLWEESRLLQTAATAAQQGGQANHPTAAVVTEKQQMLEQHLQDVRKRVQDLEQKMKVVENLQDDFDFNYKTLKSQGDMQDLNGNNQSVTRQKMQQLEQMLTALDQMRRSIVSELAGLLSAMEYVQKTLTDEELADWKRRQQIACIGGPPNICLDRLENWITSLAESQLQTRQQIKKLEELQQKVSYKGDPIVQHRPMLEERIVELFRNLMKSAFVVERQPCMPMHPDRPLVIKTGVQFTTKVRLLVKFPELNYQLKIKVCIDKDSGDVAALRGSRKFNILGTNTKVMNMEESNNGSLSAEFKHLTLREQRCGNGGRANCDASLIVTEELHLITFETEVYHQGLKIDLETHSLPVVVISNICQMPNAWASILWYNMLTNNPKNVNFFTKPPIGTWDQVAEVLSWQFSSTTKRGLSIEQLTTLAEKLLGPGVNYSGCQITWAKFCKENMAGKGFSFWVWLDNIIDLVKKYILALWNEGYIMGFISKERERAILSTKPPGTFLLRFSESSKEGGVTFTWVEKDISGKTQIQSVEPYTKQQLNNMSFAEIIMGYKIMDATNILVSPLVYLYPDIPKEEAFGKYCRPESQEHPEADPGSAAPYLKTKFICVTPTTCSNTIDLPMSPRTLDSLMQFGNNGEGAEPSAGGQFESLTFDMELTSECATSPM

T1 sequence (P17948 27-1338): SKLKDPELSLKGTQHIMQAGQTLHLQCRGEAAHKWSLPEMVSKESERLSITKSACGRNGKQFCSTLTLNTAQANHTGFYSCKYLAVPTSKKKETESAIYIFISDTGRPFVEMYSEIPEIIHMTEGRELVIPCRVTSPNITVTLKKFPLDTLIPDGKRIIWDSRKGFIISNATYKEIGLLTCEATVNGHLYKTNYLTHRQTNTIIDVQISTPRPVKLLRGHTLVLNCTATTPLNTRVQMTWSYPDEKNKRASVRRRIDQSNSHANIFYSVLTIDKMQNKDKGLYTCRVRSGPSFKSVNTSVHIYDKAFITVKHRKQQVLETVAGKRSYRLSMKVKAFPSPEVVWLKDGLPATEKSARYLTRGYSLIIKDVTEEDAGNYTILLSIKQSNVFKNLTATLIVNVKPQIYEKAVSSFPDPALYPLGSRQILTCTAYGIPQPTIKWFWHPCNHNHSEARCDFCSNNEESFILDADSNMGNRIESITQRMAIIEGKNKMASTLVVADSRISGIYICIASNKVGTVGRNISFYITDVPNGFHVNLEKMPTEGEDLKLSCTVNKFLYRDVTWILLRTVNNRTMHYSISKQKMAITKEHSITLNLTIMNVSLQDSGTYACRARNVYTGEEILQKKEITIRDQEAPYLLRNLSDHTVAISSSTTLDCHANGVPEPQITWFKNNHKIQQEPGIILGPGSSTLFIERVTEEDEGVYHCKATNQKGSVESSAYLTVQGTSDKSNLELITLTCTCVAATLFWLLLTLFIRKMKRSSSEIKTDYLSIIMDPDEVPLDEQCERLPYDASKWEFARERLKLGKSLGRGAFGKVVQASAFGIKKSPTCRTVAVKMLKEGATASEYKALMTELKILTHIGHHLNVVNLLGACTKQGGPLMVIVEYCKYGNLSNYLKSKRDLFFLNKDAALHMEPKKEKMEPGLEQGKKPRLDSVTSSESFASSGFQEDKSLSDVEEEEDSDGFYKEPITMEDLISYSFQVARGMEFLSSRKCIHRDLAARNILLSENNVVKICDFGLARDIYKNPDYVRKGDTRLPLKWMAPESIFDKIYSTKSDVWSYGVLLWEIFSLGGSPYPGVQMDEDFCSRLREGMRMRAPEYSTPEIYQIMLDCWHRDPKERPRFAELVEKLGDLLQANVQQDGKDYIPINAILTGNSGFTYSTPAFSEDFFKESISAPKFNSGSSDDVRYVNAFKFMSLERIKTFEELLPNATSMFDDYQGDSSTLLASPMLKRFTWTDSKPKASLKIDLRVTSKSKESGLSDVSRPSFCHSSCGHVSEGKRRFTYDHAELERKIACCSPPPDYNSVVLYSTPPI

Row | Structure (SMILES) | inhibition at 1 µM (Flt-1) | inhibition at 1 µM (PDGFR-β) | inhibition at 1 µM (PDGFR-α) | % inhibition at 2 μM (STAT3)
1 | CCN(CC)CCNC(=O)c1c(C)[nH]c(/C=C2\C(=O)Nc3ccc(F)cc32)c1C [Su11248] | 66.6% | 80.2% | 68.4% | 
2 | C/C=C\C(=O)O[C@@H]1C[C@H]2O[C@@H]3C=C(C)C(=O)C[C@]3(C)[C@]1(C)[C@]21CO1 [TCN, trichothecin] |  |  |  | 53.9
